Assay results: patent US20060148858A1, “1, 2-Azole derivatives with hypoglycemic and hypolipidemic activity” (priority 2002, published 2006)

Row | melting point [°C] | Compound
1 | 104 to 106 | CCCc1nn(-c2ccc(C(F)(F)F)cn2)cc1CCCOc1ccc(OC)c(CCC(=O)O)c1 [Example 81, 3-[2-methoxy-5-(3-{3-propyl-1-[5-(trifluoromethyl)-2-pyridinyl]-1H-pyrazol-4-yl}propoxy)phenyl]propanoic acid]
2 | 118 to 119 | CCCc1nn(-c2ccc(C(F)(F)F)cn2)cc1CCCOc1ccc(CCC(=O)O)cc1 [Example 82, 3-[4-(3-{3-propyl-1-[5-(trifluoromethyl)-2-pyridyl]-1H-pyrazol-4-yl}propoxy)phenyl]propionic acid]
3 | 87 to 88 | CCCc1nn(-c2ccc(C(F)(F)F)cn2)cc1CCCOc1ccccc1CCC(=O)O [Example 83, 3-[2-(3-{3-propyl-1-[5-(trifluoromethyl)-2-pyridyl]-1H-pyrazol-4-yl}propoxy)phenyl]propionic acid]
4 | 97 to 98 | CCCc1nn(-c2ccc(C(F)(F)F)cn2)cc1CCCOc1cccc(CCC(=O)O)c1 [Example 84, 3-[3-(3-{3-propyl-1-[5-(trifluoromethyl)-2-pyridyl]-1H-pyrazol-4-yl}propoxy)phenyl]propionic acid]
5 | 119 to 120 | CCCc1nn(-c2ccc(C(F)(F)F)cn2)cc1CCCOc1nn(C)cc1CC(=O)O [Example 87, [1-methyl-3-(3-{3-propyl-1-[5-(trifluoromethyl)-2-pyridyl]-1H-pyrazol-4-yl}propoxy)-1H-pyrazol-4-yl]acetic acid]
6 | 111 to 112 | CCCc1nn(-c2ccc(C(F)(F)F)cn2)cc1CCCOc1ccc(F)c(CC(=O)O)c1 [Example 90, [2-fluoro-5-(3-{3-propyl-1-[5-(trifluoromethyl)-2-pyridyl]-1H-pyrazol-4-yl}propoxy)phenyl]acetic acid]
7 | 147 to 148 | CCCc1nn(-c2ccc(C(F)(F)F)cn2)cc1CCCOc1cc(CCC(=O)O)ccc1OC [Example 93, 3-[4-methoxy-3-(3-{3-propyl-1-[5-(trifluoromethyl)-2-pyridyl]-1H-pyrazol-4-yl}propoxy)phenyl]propionic acid]
8 | 135 to 136 | CCCc1nn(-c2ccc(C(F)(F)F)cn2)cc1CCCOc1ccc(CC(=O)O)c(OC)c1 [Example 95, [2-methoxy-4-(3-{3-propyl-1-[5-(trifluoromethyl)-2-pyridyl]-1H-pyrazol-4-yl}propoxy)phenyl]acetic acid]
9 | 135 to 136 | CCCc1nn(-c2ccc(C(F)(F)F)cn2)cc1CCCOc1ccc(OC)c(CC(=O)O)c1 [Example 97, [2-methoxy-5-(3-{3-propyl-1-[5-(trifluoromethyl)-2-pyridinyl]-1H-pyrazol-4-yl}propoxy)phenyl]acetic acid]
10 | 99 to 101 | CCOc1nn(-c2ccccn2)cc1CCCOc1cccc(OC(C)(C)C(=O)O)c1 [Example 101, 2-(3-{3-[3-ethoxy-1-(2-pyridinyl)-1H-pyrazol-4-yl]propoxy}phenoxy)-2-methylpropanoic acid]
11 | 156 to 157 | CCOc1nn(-c2ccccn2)cc1CCCOc1cc(CCC(=O)O)n(-c2ccccc2)n1 [Example 103, 3-(3-{3-[3-ethoxy-1-(2-pyridinyl)-1H-pyrazol-4-yl]propoxy}-1-phenyl-1H-pyrazol-5-yl)propanoic acid]
12 | 66 to 67 | CCOc1nn(-c2ccccn2)cc1CCCOc1cccc(CC(=O)O)c1 [Example 106, (3-{3-[3-ethoxy-1-(2-pyridinyl)-1H-pyrazol-4-yl]propoxy}phenyl)acetic acid]
13 | 110 to 111 | CCOc1cc(OCCCc2cn(-c3ccccn3)nc2OCC)ccc1CCC(=O)O [Example 108, 3-(2-ethoxy-4-{3-[3-ethoxy-1-(2-pyridinyl)-1H-pyrazol-4-yl]propoxy}phenyl)propanoic acid]
14 | 92 to 93 | CCOc1nn(-c2ccccn2)cc1CCCOc1ccc(CCC(=O)O)cc1OC [Example 109, 3-(4-{3-[3-ethoxy-1-(2-pyridinyl)-1H-pyrazol-4-yl]propoxy}-3-methoxyphenyl)propanoic acid]
15 | 128 to 130 | CCOc1nn(-c2ccc(C(F)(F)F)cn2)cc1CCCOc1ccc(CCC(=O)O)c(OCc2ccccc2)c1 [Example 112, 3-[2-(benzyloxy)-4-(3-{3-ethoxy-1-[5-(trifluoromethyl)-2-pyridinyl]-1H-pyrazol-4-yl}propoxy)phenyl]propanoic acid]
16 | 131 to 132 | CCOc1cc(OCCCc2cn(-c3ccc(C(F)(F)F)cc3)nc2OCC)ccc1CCC(=O)O [Example 114, 3-[2-ethoxy-4-(3-{3-ethoxy-1-[4-(trifluoromethyl)phenyl]-1H-pyrazol-4-yl}propoxy)phenyl]propanoic acid]

Row | melting point [°C] | Compound
17 | 125 to 126 | CCOc1nn(-c2ccc(C(F)(F)F)cc2)cc1CCCOc1ccc(CCC(=O)O)cc1OC [Example 115, 3-[4-(3-{3-ethoxy-1-[4-(trifluoromethyl)phenyl]-1H-pyrazol-4-yl}propoxy)-3-methoxyphenyl]propanoic acid]
18 | 151 to 152 | CCOc1nn(-c2ccc(C(F)(F)F)cn2)cc1CCCOc1cc(CC(=O)O)n(C)n1 [Example 119, [3-(3-{3-ethoxy-1-[5-(trifluoromethyl)-2-pyridinyl]-1H-pyrazol-4-yl}propoxy)-1-methyl-1H-pyrazol-5-yl]acetic acid]
19 | 153 to 154 | CCCc1nn(-c2ccc(C(F)(F)F)cn2)cc1COc1ccc(CCC(=O)O)c(OC)c1 [Example 120, 3-[2-methoxy-4-({3-propyl-1-[5-(trifluoromethyl)-2-pyridyl]-1H-pyrazol-4-yl}methoxy)phenyl]propionic acid]
20 | 129 to 130 | CCCc1nn(-c2ccc(C(F)(F)F)cn2)cc1COc1ccc(CCC(=O)O)c(C)c1 [Example 121, 3-[2-methyl-4-({3-propyl-1-[5-(trifluoromethyl)-2-pyridyl]-1H-pyrazol-4-yl}methoxy)phenyl]propionic acid]
21 | 125 to 126 | Cc1nn(-c2ccc(C(F)(F)F)cn2)cc1CCCOc1cc(CCC(=O)O)n(-c2ccccc2)n1 [Example 128, 3-[3-(3-{3-methyl-1-[5-(trifluoromethyl)-2-pyridyl]-1H-pyrazol-4-yl}propoxy)-1-phenyl-1H-pyrazol-5-yl]propionic acid]
22 | 107 to 108 | Cc1nn(-c2ccc(C(F)(F)F)cn2)cc1CCCOc1cccc(OC(C)(C)C(=O)O)c1 [Example 130, 2-methyl-2-[3-(3-{3-methyl-1-[5-(trifluoromethyl)-2-pyridyl]-1H-pyrazol-4-yl}propoxy)phenoxy]propionic acid]
23 | 138 to 139 | CCOc1nn(-c2ccc(C(F)(F)F)cn2)cc1CCCOc1ccc(OC)cc1CC(=O)O [Example 132, [2-(3-{3-ethoxy-1-[5-(trifluoromethyl)-2-pyridyl]-1H-pyrazol-4-yl}propoxy)-5-methoxyphenyl]acetic acid]
24 | 141 to 142 | CC(C)(Oc1cccc(OCCCc2cn(-c3ccc(C(F)(F)F)cn3)nc2-c2ccccc2)c1)C(=O)O [Example 133, 2-methyl-2-[3-(3-{3-phenyl-1-[5-(trifluoromethyl)-2-pyridyl]-1H-pyrazol-4-yl}propoxy)phenoxy]propionic acid]
25 | 133 to 134 | O=C(O)Cc1ccccc1OCCCc1cn(-c2ccc(C(F)(F)F)cn2)nc1-c1ccccc1 [Example 134, [2-(3-{3-phenyl-1-[5-(trifluoromethyl)-2-pyridyl]-1H-pyrazol-4-yl}propoxy)phenyl]acetic acid]
26 | 115 to 116 | CCOc1nn(-c2ccc(C(F)(F)F)cn2)cc1CCCOc1nn(C)cc1CC(=O)O [Example 135, [3-(3-{3-ethoxy-1-[5-(trifluoromethyl)-2-pyridyl]-1H-pyrazol-4-yl}propoxy)-1-methyl-1H-pyrazol-4-yl]acetic acid]
27 | 117 to 118 | CCOc1nn(-c2ccc(C(F)(F)F)cn2)cc1CCCOc1nn(-c2ccccc2)cc1CC(=O)O [Example 136, [3-(3-{3-ethoxy-1-[5-(trifluoromethyl)-2-pyridyl]-1H-pyrazol-4-yl}propoxy)-1-phenyl-1H-pyrazol-4-yl]acetic acid]
28 | 130 to 131 | CCOc1nn(-c2ccc(C(F)(F)F)cn2)cc1CCCOc1ccc(Cl)cc1CC(=O)O [Example 139, [5-chloro-2-(3-{3-ethoxy-1-[5-(trifluoromethyl)-2-pyridyl]-1H-pyrazol-4-yl}propoxy)phenyl]acetic acid]
29 | 104 to 105 | CCOc1ccc(OCCCc2cn(-c3ccc(C(F)(F)F)cn3)nc2OCC)c(CCC(=O)O)c1 [Example 140, 3-[2-(3-{3-ethoxy-1-[5-(trifluoromethyl)-2-pyridyl]-1H-pyrazol-4-yl}propoxy)-5-ethoxyphenyl]propionic acid]
30 | 128 to 129 | Cc1nn(-c2ccc(C(F)(F)F)cn2)cc1CCCOc1ccccc1CC(=O)O [Example 141, [2-(3-{3-methyl-1-[5-(trifluoromethyl)-2-pyridyl]-1H-pyrazol-4-yl}propoxy)phenyl]acetic acid]
31 | 147 to 148 | CCOc1nn(-c2ccc(C(F)(F)F)cn2)cc1CCCOc1cc(OC)ccc1CC(=O)O [Example 142, [2-(3-{3-ethoxy-1-[5-(trifluoromethyl)-2-pyridyl]-1H-pyrazol-4-yl}propoxy)-4-methoxyphenyl]acetic acid]

Row | Compound | melting point [°C]
32 | CCCc1nn(-c2ccc(C(F)(F)F)cn2)cc1CCCCOc1ccc(CC(=O)O)cc1 [Example 88, [4-(4-{3-propyl-1-[5-(trifluoromethyl)-2-pyridyl]-1H-pyrazol-4-yl}butoxy)phenyl]acetic acid] | 121 to 122
33 | CCCc1nn(-c2ccc(C(F)(F)F)cn2)cc1CCCCOc1ccc(CCC(=O)O)c(OC)c1 [Example 89, 3-[2-methoxy-4-(4-{3-propyl-1-[5-(trifluoromethyl)-2-pyridyl]-1H-pyrazol-4-yl}butoxy)phenyl]propionic acid] | 91 to 92
34 | CCOc1cc(OCCCCc2cn(-c3ccc(C(F)(F)F)cn3)nc2OCC)ccc1CCC(=O)O [Example 107, 3-[2-ethoxy-4-(4-{3-ethoxy-1-[5-(trifluoromethyl)-2-pyridinyl]-1H-pyrazol-4-yl}butoxy)phenyl]propanoic acid] | 101 to 102
